Drawing on ChEMBL document CHEMBL1146408, “Makaluvamine N: a new pyrroloiminoquinone from Zyzzya fuliginosa” (1997), this text covers inhibition for one molecule.

Molecules are shown by their SMILES.

What is called inhibition is how much of the control response was suppressed. Low values mean a weak effect, high ones a strong effect.

This test concerns the target DNA topoisomerase 2-alpha (Homo sapiens) (UniProt P11388). Put plainly: Inhibition of human topoisomerase 2alpha-mediated supercoiled pBR322 DNA relaxation at 5 ug/ml by agarose gel electrophoresis.

Chain of DNA topoisomerase 2-alpha (Homo sapiens) (P11388 whole entry): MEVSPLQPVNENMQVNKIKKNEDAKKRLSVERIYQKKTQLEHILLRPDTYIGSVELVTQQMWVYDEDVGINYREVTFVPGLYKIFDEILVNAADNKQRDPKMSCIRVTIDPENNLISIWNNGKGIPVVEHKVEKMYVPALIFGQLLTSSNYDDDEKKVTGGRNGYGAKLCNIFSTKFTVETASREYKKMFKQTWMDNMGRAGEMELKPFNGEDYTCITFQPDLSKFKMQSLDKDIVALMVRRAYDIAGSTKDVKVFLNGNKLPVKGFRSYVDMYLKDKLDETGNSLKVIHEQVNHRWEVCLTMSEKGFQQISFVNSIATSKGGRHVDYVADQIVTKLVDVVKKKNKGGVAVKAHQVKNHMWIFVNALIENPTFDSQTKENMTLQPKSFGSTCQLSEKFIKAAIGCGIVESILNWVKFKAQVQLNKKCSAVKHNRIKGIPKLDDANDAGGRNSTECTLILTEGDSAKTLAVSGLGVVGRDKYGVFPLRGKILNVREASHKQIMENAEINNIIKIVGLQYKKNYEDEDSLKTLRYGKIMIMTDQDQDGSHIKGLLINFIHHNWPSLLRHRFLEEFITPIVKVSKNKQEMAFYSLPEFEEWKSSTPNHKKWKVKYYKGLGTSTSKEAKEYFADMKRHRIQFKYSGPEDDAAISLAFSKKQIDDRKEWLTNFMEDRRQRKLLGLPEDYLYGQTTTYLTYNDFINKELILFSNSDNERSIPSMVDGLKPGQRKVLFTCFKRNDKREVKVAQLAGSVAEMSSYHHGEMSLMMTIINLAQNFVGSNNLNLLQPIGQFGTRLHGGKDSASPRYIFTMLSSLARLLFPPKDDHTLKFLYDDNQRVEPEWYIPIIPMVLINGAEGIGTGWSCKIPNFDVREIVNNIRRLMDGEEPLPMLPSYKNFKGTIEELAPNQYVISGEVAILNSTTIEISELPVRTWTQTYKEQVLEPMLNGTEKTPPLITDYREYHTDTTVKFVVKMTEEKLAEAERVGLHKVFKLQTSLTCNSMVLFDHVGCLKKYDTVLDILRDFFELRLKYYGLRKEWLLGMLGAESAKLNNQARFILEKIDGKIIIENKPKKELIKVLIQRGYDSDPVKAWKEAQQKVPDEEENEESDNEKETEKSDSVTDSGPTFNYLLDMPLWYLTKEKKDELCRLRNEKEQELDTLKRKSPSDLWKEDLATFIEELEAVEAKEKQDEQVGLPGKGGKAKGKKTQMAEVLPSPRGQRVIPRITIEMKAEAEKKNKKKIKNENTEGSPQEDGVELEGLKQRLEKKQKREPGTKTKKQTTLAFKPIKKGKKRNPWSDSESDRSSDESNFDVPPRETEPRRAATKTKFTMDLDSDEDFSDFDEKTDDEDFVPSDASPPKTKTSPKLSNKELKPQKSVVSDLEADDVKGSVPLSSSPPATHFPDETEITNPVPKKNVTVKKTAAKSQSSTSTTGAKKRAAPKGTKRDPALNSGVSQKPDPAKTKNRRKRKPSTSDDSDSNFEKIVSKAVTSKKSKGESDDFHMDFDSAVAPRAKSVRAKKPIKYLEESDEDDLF

In the case of `NC1=C(Br)C2=NCCc3c[nH]c(c32)C1=O`, the inhibition was 90%.
